According to US4530791A, “β-Lactam antibiotics” (Kowa Co., Ltd., priority 1979, dated 1985):
Converted amounts (≈) assume the structure as drawn. Where two headings read alike, the source gives them in different places.

Experiments:
Bacillus subtilis 6633 = test: Antibacterial spectrum (minimum inhibitory concentration); assay type: cell-based
Text: (§1) The antibacterial spectra against various microorganisms are shown in Table 2 in comparison with those of aminobenzyl penicillin (AB-Pc) and cefoxitin (CFX).

Citrobacter 1 (PC ase) = test: as above; assay type: cell-based
Text: as §1

Citrobacter 24 (CS ase) [1] = test: as above; assay type: cell-based
Text: as §1

[2] = system: Enterobacter aerogenes 972; test: as above; assay type: cell-based; conditions: Klebsiella aerogenes
Text: as §1

Enterobacter cloacae 977 = test: as above; assay type: cell-based
Text: as §1

[3] = system: Escherichia coli EC-1 (PC ase I); test: as above; assay type: cell-based
Text: as §1

[4] = system: Escherichia coli EC-59 (PC ase II); test: as above; assay type: cell-based
Text: as §1

[5] = system: Escherichia coli EC-68 (PC ase IV); test: as above; assay type: cell-based
Text: as §1

[6] = system: Excherichia coli NIHJ JC-2; test: as above; assay type: cell-based
Text: as §1

Hafnia alvei 978 = test: as above; assay type: cell-based
Text: as §1

Klebsiella 25 (PC ase) = test: as above; assay type: cell-based
Text: as §1

Klebsiella 32 (CS ase) = test: as above; assay type: cell-based
Text: as §1

[7] = system: Klebsiella pneumoniae 602; test: as above; assay type: cell-based
Text: as §1

Proteus inconstans Km115 = test: as above; assay type: cell-based; conditions: Providencia alcalifaciens
Text: as §1

Proteus morganii 3168 = test: as above; assay type: cell-based; conditions: Morganella morganii
Text: as §1

Proteus rettgari 13501 = test: as above; assay type: cell-based
Text: as §1

Proteus vulgaris 874 = test: as above; assay type: cell-based
Text: as §1

[8] = system: Pseudomonas aeruginosa 10490; test: as above; assay type: cell-based
Text: as §1

[9] = system: Pseudomonas aeruginosa A-3; test: as above; assay type: cell-based; conditions: A3
Text: as §1

Pseudomonas putida 5121 = test: as above; assay type: cell-based
Text: as §1

Serratia marcescens NHL = test: as above; assay type: cell-based
Text: as §1

[10] = system: Staphylococcus aureus 209P JC-1; test: as above; assay type: cell-based
Text: as §1

[11] = system: Staphylococcus epidermidis 1228; test: as above; assay type: cell-based
Text: as §1

[12] = Stability: half-life period at different values of pH (ultraviolet absorption spectroscopy); assay type: physicochemical; conditions: read-out: half-life period t1/2 (converted)
Text: (11) Stability: The half-life period at different values of pH are as follows: […]
pH 4.0-7.0: Mcllvaine's buffer solution (sodium phosphate-citric acid) pH 10.0: 0.1M sodium carbonate-sodium hydrogen carbonate buffer solution […]
Ultraviolet absorption spectroscopy
(9) Stability: The half-life period at different values of pH are as follows:
The solvent and measurement are the same as in the substance KA-6643-A.

Solubility in solvent = assay type: physicochemical
Citrobacter 24 (CS ase) [13] = test: Antibacterial activity-improving action against β-lactam-resistant bacteria (disc, inhibiting zone); assay type: cell-based; conditions: Medium including Citrobacter 24; AB-Pc 1 mg/ml, KA-6643-A or -B 10 γ/ml, alone or combined; 8 mm disc, 37° C., 18 hours
Procedure: (§2) In the Penassay agar (12 g of which was dissolved in 500 ml of distilled water, Kyoei Pharm. Co., Ltd.) were inoculated Escherichia coli EC-1 (PC ase) and citrobacter 24 (CS ase) which were β-lactamase-producing organisms, and 10 ml of the inoculated medium was flowed on a Petri dish of 9 cm in diameter and solidified to give a test medium.
(§3) In this agar medium were placed pulp discs of 8 mm in diameter into which was introduced with […] of aqueous solutions of antibiotics, respectively, followed by culturing at 37° C. for 18 hours and then measuring the diameter of an inhibiting zone around each disc.

[14] = system: Escherichia coli EC-1 (PC ase); test: as above; assay type: cell-based; conditions: Medium including E. coli EC-1; AB-Pc 1 mg/ml, KA-6643-A or -B 10 γ/ml, alone or combined; 8 mm disc, 37° C., 18 hours
Procedure: as §2, §3

[15] = target: β-lactamase enzyme penicillin amidohydrolase EC 3.5.2.6; test: β-Lactamase-inhibitory activity; assay type: biochemical; conditions: method of C. Reading and M. Cole
Procedure: When using as β-lactamase enzyme penicillin amidohydrolase EC 3.5.2.6 (Tokyo Chem. Syn. Co., Ltd.) derived from bacteria belonging to the genus Bacillus, the I50 value of the substance KA-6643-A was 0.5 ng/ml and that of the substance KA-6643-B was 12.8 ng/ml.
The I50 value was measured in accordance with the method of C. Reading and M. Cole [Antimicr. Agents and Chemoth. 11, 852-857 (1977)].

[16] = cited from earlier work
[17] = mcilvaine's buffer, pH 4.0, Mcllvaine's buffer
[18] = mcilvaine's buffer, pH 6.0, Mcllvaine's buffer
[19] = mcilvaine's buffer, pH 7.0, Mcllvaine's buffer
[20] = pH 10.0, 0.1M sodium carbonate-sodium hydrogen carbonate buffer
[21] = organic solvents: acetone, chloroform, ethyl acetate, petroleum ether

| MIC (Bacillus subtilis 6633) [µg/mL] | MIC (Citrobacter 1 (PC ase)) [µg/mL] | MIC (Citrobacter 24 (CS ase) [1]) [µg/mL] | MIC [2] [µg/mL] | MIC (Enterobacter cloacae 977) [µg/mL] | MIC [3] [µg/mL] | MIC [4] [µg/mL] | MIC [5] [µg/mL] | MIC [6] [µg/mL] | MIC (Hafnia alvei 978) [µg/mL] | MIC (Klebsiella 25 (PC ase)) [µg/mL] | MIC (Klebsiella 32 (CS ase)) [µg/mL] | MIC [7] [µg/mL] | MIC (Proteus inconstans Km115) [µg/mL] | MIC (Proteus morganii 3168) [µg/mL] | MIC (Proteus rettgari 13501) [µg/mL] | MIC (Proteus vulgaris 874) [µg/mL] | MIC [8] [µg/mL] | MIC [9] [µg/mL] | MIC (Pseudomonas putida 5121) [µg/mL] | Structure (SMILES) | also measured |
| --- | --- | --- | --- | --- | --- | --- | --- | --- | --- | --- | --- | --- | --- | --- | --- | --- | --- | --- | --- | --- | --- |
| 0.2 (≈ 0.584 µM) | 0.78 (≈ 2.28 µM) | 1.56 (≈ 4.56 µM) | 0.1 (≈ 0.292 µM) | 0.78 (≈ 2.28 µM) | 0.2 (≈ 0.584 µM) | 0.05 (≈ 0.146 µM) | 0.05 (≈ 0.146 µM) | 0.05 (≈ 0.146 µM) | 0.2 (≈ 0.584 µM) | 0.78 (≈ 2.28 µM) | 3.13 (≈ 9.14 µM) | 0.2 (≈ 0.584 µM) | 0.78 (≈ 2.28 µM) | 0.39 (≈ 1.14 µM) | 1.56 (≈ 4.56 µM) | 0.39 (≈ 1.14 µM) | 6.25 (≈ 18.3 µM) | 6.25 (≈ 18.3 µM) | 1.56 (≈ 4.56 µM) | CC(=O)NC=C[S+]([O-])C1=C(C(=O)O)N2C(=O)C(C(C)(C)O)C2C1 (stereo not shown) [KA-6643-A] | half-life [12, 17]: 33 h; half-life [12, 18]: 144 h; half-life [12, 19]: 187 h; half-life ([12]; pH 7.8): 110 h; half-life [12, 20]: 2.8 h; Solubility in solvent (Solubility in solvent; [21]): substantially insoluble; Solubility in solvent (Solubility in solvent; water): Readily soluble; MIC (Serratia marcescens NHL): 0.2 µg/mL (≈ 0.584 µM); MIC [10]: 0.39 µg/mL (≈ 1.14 µM); MIC [11]: 0.78 µg/mL (≈ 2.28 µM); Diameter of inhibiting zone (Citrobacter 24 (CS ase) [13]): 16.0 mm; Diameter of inhibiting zone [14]: 18.0 mm; I50 value [15]: 0.5 ng/mL |
| 6.25 (≈ 14.8 µM) | 6.25 (≈ 14.8 µM) | 12.5 (≈ 29.6 µM) | 3.13 (≈ 7.41 µM) | 6.25 (≈ 14.8 µM) | 3.13 (≈ 7.41 µM) | 1.56 (≈ 3.69 µM) | 3.13 (≈ 7.41 µM) | 1.56 (≈ 3.69 µM) | 6.25 (≈ 14.8 µM) | 6.25 (≈ 14.8 µM) | 12.5 (≈ 29.6 µM) | 6.25 (≈ 14.8 µM) | 12.5 (≈ 29.6 µM) | 12.5 (≈ 29.6 µM) | 50 (≈ 118 µM) | 12.5 (≈ 29.6 µM) | 25 (≈ 59.2 µM) | 50 (≈ 118 µM) | 100 (≈ 237 µM) | CC(=O)NC=C[S+]([O-])C1=C(C(=O)O)N2C(=O)C(C(C)(C)OS(=O)(=O)O)C2C1 (stereo not shown) [KA-6643-B] | half-life [12, 17]: 21.8 h; half-life [12, 18]: 210 h; half-life [12, 19]: 170 h; half-life ([12]; pH 7.8): 130 h; half-life [12, 20]: 7.9 h; Solubility in solvent (Solubility in solvent; [21]): substantially insoluble; Solubility in solvent (Solubility in solvent; water): Readily soluble; MIC (Serratia marcescens NHL): 6.25 µg/mL (≈ 14.8 µM); MIC [10]: 6.25 µg/mL (≈ 14.8 µM); MIC [11]: 6.25 µg/mL (≈ 14.8 µM); I50 value [15]: 12.8 ng/mL |
| 1.56 (≈ 3.65 µM) | > 100 | > 100 | > 100 | > 100 | 3.13 (≈ 7.32 µM) | 6.25 (≈ 14.6 µM) | 6.25 (≈ 14.6 µM) | 6.25 (≈ 14.6 µM) | 6.25 (≈ 14.6 µM) | 6.25 (≈ 14.6 µM) | > 100 | 0.78 (≈ 1.82 µM) | 6.25 (≈ 14.6 µM) | 6.25 (≈ 14.6 µM) | 1.56 (≈ 3.65 µM) | 6.25 (≈ 14.6 µM) | > 100 | > 100 | > 100 | CO[C@@]1(NC(=O)Cc2cccs2)C(=O)N2C(C(=O)O)=C(COC(N)=O)CS[C@@H]21 [CFX, cefoxitin, reference compound] | MIC (Serratia marcescens NHL): 12.5 µg/mL (≈ 29.2 µM); MIC [10]: 1.56 µg/mL (≈ 3.65 µM); MIC [11]: 1.56 µg/mL (≈ 3.65 µM) |

Further lines, the molecule ahead of its results:

| Structure (SMILES) | MIC (Bacillus subtilis 6633) [µg/mL] | MIC (Citrobacter 1 (PC ase)) [µg/mL] | MIC (Citrobacter 24 (CS ase) [1]) [µg/mL] | MIC [2] [µg/mL] | MIC (Enterobacter cloacae 977) [µg/mL] | MIC [3] [µg/mL] | MIC [4] [µg/mL] | MIC [5] [µg/mL] | MIC [6] [µg/mL] | MIC (Hafnia alvei 978) [µg/mL] | MIC (Klebsiella 25 (PC ase)) [µg/mL] | MIC (Klebsiella 32 (CS ase)) [µg/mL] | MIC [7] [µg/mL] | MIC (Proteus inconstans Km115) [µg/mL] | MIC (Proteus morganii 3168) [µg/mL] | MIC (Proteus rettgari 13501) [µg/mL] | MIC (Proteus vulgaris 874) [µg/mL] | MIC [8] [µg/mL] | MIC [9] [µg/mL] | MIC (Pseudomonas putida 5121) [µg/mL] | also measured |
| --- | --- | --- | --- | --- | --- | --- | --- | --- | --- | --- | --- | --- | --- | --- | --- | --- | --- | --- | --- | --- | --- |
| CC1(C)S[C@@H]2[C@H](NC(=O)[C@H](N)c3ccccc3)C(=O)N2[C@H]1C(=O)O [AB-Pc, aminobenzyl penicillin, reference compound] | ≤ 0.025 | > 100 | > 100 | 6.25 (≈ 17.9 µM) | 100 (≈ 286 µM) | > 100 | > 100 | > 100 | 6.25 (≈ 17.9 µM) | 50 (≈ 143 µM) | > 100 | > 100 | 12.5 (≈ 35.8 µM) | 100 (≈ 286 µM) | > 100 | 0.2 (≈ 0.572 µM) | > 100 | 100 (≈ 286 µM) | > 100 | > 100 | MIC (Serratia marcescens NHL): 50 µg/mL (≈ 143 µM); MIC [10]: 0.05 µg/mL (≈ 0.143 µM); MIC [11]: 0.78 µg/mL (≈ 2.23 µM) |
| CC(=O)N/C=C/[S+]([O-])C1=C(C(=O)O)N2C(=O)C(C(C)OS(=O)(=O)O)C2C1 (stereo not shown) [MM-4550] |  |  |  |  |  |  |  |  |  |  |  |  |  |  |  |  |  |  |  |  | half-life period t1/2 ([16]; pH 4): 5.5 h; half-life period t1/2 ([16]; pH 6): 18 h; half-life period t1/2 ([16]; pH 7): 10.5 h; half-life period t1/2 ([16]; pH 7.8): 8.5 h; half-life period t1/2 ([16]; pH 10): 19 h |
